Measurements taken from patent US20230364047A1, “USE OF ESTER GROUP-[…] PR[…] IN PREPARATION OF MEDICINE FOR TREATING DRY EYE SYNDROME” (CHANGCHUN GENESCIENCE PHARMACEUTICAL CO., LTD., priority 2020, published 2023).
Marks after values point to notes of the source that are not given here.

Key:
[1] = Body weight and general state of castrated male rabbits during and after topical eye administration; conditions: x ± s, n=5
Procedure: (§1) 5, 2014-Oct. […] Body weight was measured on the first day and the last day of the quarantine period. • 7 Grouping and Identifying Method for Experimental Animals • 7.1 Identifying method for animals • 7.1.1 Quarantine period: fed in separate cages, tag hung on each cage, and no marking of animals. • 7.1.2 Administration observation period: marked by staining with saturated picric acid solution, and 5 rabbits in each group were marked in the following ways, respectively: head, back, tail, head and back, and white. • 7.2 Grouping of experimental animals: after the quarantine period was finished, 5 rabbits were randomly selected according to the body weight and used in the normal control group, and the rest rabbits were used in the modeling group. […] 5, 2014-Aug. 11, 2014 • 9.3 Date of grouping: Aug. 12, 2014, Sep. 15, 2014 • 9.4 Date of modeling: Aug. 12, 2014 • 9.5 Administration time: Sep. 15, 2014 • 9.6 Animal sacrifice time: Oct. 27, 2014 • 9.2 Duration of administration: two consecutive weeks from Sep. 15, 2014 to Sep. […] An aseptic towel was spread out, testicles at two sides were sequentially squeezed into the scrotum from abdominal cavity and clenched to prevent them from sliding, a small opening was cut on the scrotum with a sterilized blade, the testicles were squeezed out by force, the spermatic vein and vas deferens were ligated, the testicles and epididymis were cut out, the scrotum skin was sutured, and iodine tincture was coated locally to prevent infection. • 11.2 Administration method: administration was started on day 35 after the operation, at a prescribed dose for 14 consecutive days. • 11.3 Detection indexes: for each group, basal tear secretion (Schirmer I test), corneal fluorescence staining (PI) and tear film break-up time (BUT) were detected before the modeling and on days 0, 7, and 14 after the administration by performing surface anesthesia. • 11.3.1 Basal tear secretion (Schirmer I test): the 5 mm forepart of a qualitative filter paper (35 mm×6 mm) was reversely folded and placed in the lower eyelid bitamporal conjunctival sac, and the tear infiltration length (including the reversely-folded segment) of the test paper after 5 min was detected and recorded. • 11.3.2 Scoring criteria for corneal fluorescence staining (PI): 1% fluorescein sodium was applied to both eyes of a rabbit without subsequent rinsing, and a slit-lamp microscope was used for observation.

[2] = test system: dry eye syndrome caused by castration of male rabbits; assay: Basal tear secretion (Schirmer I test) in castrated male rabbits; assay type: in vivo, Japanese big-ear white rabbit
Procedure: as §1

[3] = test system: dry eye syndrome caused by castration of male rabbits; assay: Histopathology examination of harderian gland and meibomian gland in castrated male rabbits; assay type: in vivo, Japanese big-ear white rabbit; conditions: HE sections, in words
Procedure: (§2) 5, 2014-Oct. […] Body weight was measured on the first day and the last day of the quarantine period. • 7 Grouping and Identifying Method for Experimental Animals • 7.1 Identifying method for animals • 7.1.1 Quarantine period: fed in separate cages, tag hung on each cage, and no marking of animals. • 7.1.2 Administration observation period: marked by staining with saturated picric acid solution, and 5 rabbits in each group were marked in the following ways, respectively: head, back, tail, head and back, and white. • 7.2 Grouping of experimental animals: after the quarantine period was finished, 5 rabbits were randomly selected according to the body weight and used in the normal control group, and the rest rabbits were used in the modeling group. […] 5, 2014-Aug. 11, 2014 • 9.3 Date of grouping: Aug. 12, 2014, Sep. 15, 2014 • 9.4 Date of modeling: Aug. 12, 2014 • 9.5 Administration time: Sep. 15, 2014 • 9.6 Animal sacrifice time: Oct. 27, 2014 • 9.2 Duration of administration: two consecutive weeks from Sep. 15, 2014 to Sep. […]

[4] = test system: dry eye syndrome caused by castration of male rabbits; assay: Corneal fluorescence staining (PI) score in castrated male rabbits; assay type: in vivo, Japanese big-ear white rabbit; conditions: score 0-4, x ± s, n=5
Procedure: as §2

[5] = topical to the eyes for 14 days
[6] = castrated male rabbits, topical to the eyes, Schirmer I 5 min, x ± s, n=5

**Q.** With `CCC(=O)O[C@H]1CC[C@H]2[C@@H]3CCC4=CC(=O)CC[C@]4(C)[C@H]3CC[C@]12C` [Positive 2, testosterone propionate] as the molecule, how does the “Weight of rabbits, Day 7 after drug withdrawal” value [1, 5] read?
**A.** 3.0 ± 1.21 kg

**Q.** And the “Weight of rabbits, Day 14 after drug withdrawal” value [1, 5]?
**A.** 3.3 ± 1.31 kg

**Q.** What about the “Weight of rabbits, Day 21 after drug withdrawal” value [1, 5] of the same molecule?
**A.** 3.6 ± 1.07 kg

**Q.** And the “Weight of rabbits, Day 28 after drug withdrawal” value [1, 5]?
**A.** 4.0 ± 1.20 kg

**Q.** What about the “Weight of rabbits, Day 7 of administration” value ([1]; topical to the eyes) of the same molecule?
**A.** 2.4 ± 1.10 kg

**Q.** And the “Weight of rabbits, Day 14 of administration” value ([1]; topical to the eyes)?
**A.** 2.6 ± 1.05 kg

**Q.** And the “Tear secretion, Day 28 after drug withdrawal” value ([2]; castrated male rabbits, topical to the eyes for 14 days, Schirmer I 5 min, x ± s, n=5)?
**A.** 12.2 ± 3.48 mm

**Q.** And the “Tear secretion, Day 7 of administration” value [2, 6]?
**A.** 12.7 ± 2.84 mm

**Q.** And the “Tear secretion, Day 14 of administration” value [2, 6]?
**A.** 14.8 ± 3.17*^Δ▴ mm

**Q.** And the “Tear secretion, effect in words” value ([2]; castrated rabbits, compared with the model group and the solvent group (P<0.05))?
**A.** increased markedly

**Q.** What about the “Histopathology of harderian gland and meibomian gland compared with the model group” value [3] of the same molecule?
**A.** marked ameliorating

**Q.** And the “Corneal staining score, Day 28 after drug withdrawal” value [4, 5]?
**A.** 3.0 ± 1.22

**Q.** And the “Corneal staining score, Day 7 of administration” value ([4]; topical to the eyes)?
**A.** 2.8 ± 0.22

**Q.** What about the “Corneal staining score, Day 14 of administration” value ([4]; topical to the eyes) of the same molecule?
**A.** 2.2 ± 0.57*^Δ▴
